Tests used:
[1] = system: CCRF-CEM; details: Leukemia, besylate salt
[2] = system: A549/ATCC; details: Non-Small Cell Lung Cancer, besylate salt
[3] = system: EKVX; details: Non-Small Cell Lung Cancer, besylate salt
[4] = system: NCI-H23; details: NCI-H23, Non-Small Cell Lung Cancer; besylate salt
[5] = system: COLO 205; details: COLO 205, Colon Cancer; besylate salt
[6] = system: HCC-2998; details: HCC-2998, Colon Cancer; besylate salt
[7] = system: CCRF-CEM; experiment: cells; details: Homo sapiens, read-out: LC50
[8] = system: HT29; details: HT29, Colon Cancer; besylate salt
[9] = system: KM12; details: KM12, Colon Cancer; besylate salt
[10] = system: SF-268; details: SF-268, CNS Cancer; besylate salt
[11] = system: SF-295; details: SF-295, CNS Cancer; besylate salt
[12] = system: SNB-19; details: SNB-19, CNS Cancer; besylate salt
[13] = system: SNB-75; details: SNB-75, CNS Cancer; besylate salt
[14] = system: UACC-257; details: UACC-257, Melanoma; besylate salt
[15] = system: UACC-62; details: UACC-62, Melanoma; besylate salt
[16] = system: OVCAR-3; details: OVCAR-3, Ovarian Cancer; besylate salt
[17] = system: CAKI-1; details: CAKI-1, Renal Cancer; besylate salt
[18] = system: MCF7; details: MCF7, Breast Cancer; besylate salt
[19] = system: NCI/ADR-RES; details: Breast Cancer, besylate salt
[20] = system: MDA-MB-231/ATCC; details: Breast Cancer, besylate salt
[21] = system: HS 578T; details: Breast Cancer, besylate salt
[22] = system: MDA-MB-435; details: MDA-MB-435, Breast Cancer; besylate salt
[23] = system: BT-549; details: BT-549, Breast Cancer; besylate salt
[24] = system: A549/ATCC; experiment: cells; details: Homo sapiens, A549, read-out: LC50
[25] = system: HOP-62; experiment: cells; details: Homo sapiens
[26] = system: HOP-92; experiment: cells; details: Homo sapiens
[27] = system: NCI-H226; experiment: cells; details: Homo sapiens
[28] = system: NCI-H23; experiment: cells; details: Homo sapiens, NCI-H23, read-out: LC50
[29] = system: HT29; experiment: cells; details: Homo sapiens
[30] = system: SW-620; experiment: cells; details: Homo sapiens, SW-620, read-out: LC50
[31] = system: SNB-75; experiment: cells; details: Homo sapiens
[32] = system: U251; experiment: cells; details: Homo sapiens, U-251, read-out: LC50
[33] = system: M14; experiment: cells; details: Homo sapiens
[34] = system: SK-MEL-2; experiment: cells; details: Homo sapiens
[35] = system: UACC-257; experiment: cells; details: Homo sapiens
[36] = system: OVCAR-3; experiment: cells; details: Homo sapiens
[37] = system: SN12C; experiment: cells; details: Homo sapiens
[38] = system: MCF7; experiment: cells; details: Homo sapiens
[39] = system: HS 578T; experiment: cells; details: Homo sapiens
[40] = system: BT-549; experiment: cells; details: Homo sapiens

COc1cc(Nc2ncc(F)c(Nc3ccc4c(n3)NC(=O)C(C)(C)O4)n2)cc(OC)c1OC [Compound 1]
TGI [1]: >1.00E−4
TGI [2]: >1.00E−4
TGI [3]: >1.00E−4
TGI [4]: >1.00E−4
TGI [5]: >1.00E−4
TGI [6]: >1.00E−4
CC50 [7]: > 100 µM
TGI [8]: >1.00E−4
TGI [9]: >1.00E−4
TGI [10]: >1.00E−4
TGI [11]: >1.00E−4
TGI [12]: >1.00E−4
TGI [13]: >1.00E−4
TGI [14]: >1.00E−4
TGI [15]: >1.00E−4
TGI [16]: >1.00E−4
TGI [17]: 2.44E−6
TGI [18]: >1.00E−4
TGI [19]: >1.00E−4
TGI [20]: >1.00E−4
TGI [21]: >1.00E−4
TGI [22]: >1.00E−4
TGI [23]: >1.00E−4
CC50 [24]: > 100 µM
IC50 ([25]; HOP-62, read-out: G150): 0.537 µM
CC50 ([25]; HOP-62, read-out: LC50): > 100 µM
IC50 ([26]; HOP-92, read-out: G150): 0.41 µM
CC50 ([26]; HOP-92, read-out: LC50): > 100 µM
IC50 ([27]; NCI-H226, read-out: G150): 0.497 µM
CC50 ([27]; NCI-H226, read-out: LC50): > 100 µM
CC50 [28]: > 100 µM
IC50 ([29]; HT-29, read-out: G150): 2.19 µM
CC50 ([29]; HT-29, read-out: LC50): > 100 µM
CC50 [30]: > 100 µM
IC50 ([31]; SNB-75, read-out: G150): 0.871 µM
CC50 ([31]; SNB-75, read-out: LC50): > 100 µM
CC50 [32]: > 100 µM
IC50 ([33]; M14, read-out: G150): > 100 µM
CC50 ([33]; M14, read-out: LC50): > 100 µM
IC50 ([34]; SK-MEL-2, read-out: G150): > 100 µM
CC50 ([34]; SK-MEL-2, read-out: LC50): > 100 µM
IC50 ([35]; UACC-257, read-out: G150): > 100 µM
CC50 ([35]; UACC-257, read-out: LC50): > 100 µM
IC50 ([36]; OVCAR-3, read-out: G150): > 100 µM
CC50 ([36]; OVCAR-3, read-out: LC50): > 100 µM
IC50 ([37]; read-out: G150): 0.698 µM
CC50 ([37]; read-out: LC50): > 100 µM
IC50 ([38]; MCF7, read-out: G150): 2.72 µM
CC50 ([38]; MCF7, read-out: LC50): > 100 µM
IC50 ([39]; read-out: G150): 1.19 µM
CC50 ([39]; read-out: LC50): > 100 µM
IC50 ([40]; BT-549, read-out: G150): 2.43 µM
CC50 ([40]; BT-549, read-out: LC50): > 100 µM
